In general, IC50 refers to the concentration that inhibits the measured activity by half. Low values mean greater potency, high ones weaker potency.

Here are results for 4 compounds from patent US5273991A, “Imidazole-containing compositions and methods of use thereof analogs of distamycin” (Research Corporation Technologies, Inc., priority 1992, dated 1993).

One assay has as its system poly(dG.dC). In words: circular dichroism (CD) titration, poly(dG.dC). It counts as binding. How it is done:
The DNA binding properties of the present compounds were assessed by circular dichroism (CD) titration experiments. Methods for CD titration can be found, for example, in Zimmer et al. (1986) Prog. Biophys. Molec. Biol 47, 31. The conformation of DNA can be readily determined by CD experiments, and for B-DNA, characteristic positive and negative Cotton effects are observed at 260 and 245 nm, respectively.
The interaction of Compounds 6-10 to a number of DNAs [calf thymus, poly(dA dT) and poly(dG dC)] were analyzed by CD titration studies. All the CD titration experiments were performed using identical procedures, concentrations of DNA, and increments of drug:DNA ratios (or `r`, i.e. moles of drug to moles of DNA base pairs). Therefore, the differences observed in the CD spectra for the titration of each of the compounds to the polydeoxynucleotides may be directly compared to reflect their DNA binding properties.
All experiments were performed with a continuous flow of nitrogen purging the polarimeter. A 1 mm path length jacketed cell was used and all experiments were done at room temperature. Initially, DNA [0.02 μ moles (base pairs), 130 μL] was placed in the cell and the spectrum of the DNA alone was collected. Aliquots of drug were added and the spectra collected. The drug solutions were 1 mM and amounts of the drug added correspond to a drug to base pair ratio of 0.05, 0.10, 0.15, 0.20, 0.25, 0.30, 0.40, 0.50, 0.60, 0.80, 1.00. The scan parameters were set and standard for all experiments. The spectra were collected from 400 nm to 200 nm. The sensitivity was set at 1 mdeg and the scan speed was set at 20 nm per minute. Three scans were accumulated and automatically averaged by the computer. The λmax and ellipticity (mdeg) for each spectrum were collected from the raw scans and the final plots were smoothed by the noise reduction program on the computer. […] The induced CD band is presumably due to the uv absorption π to π^* transition of the drug in the drug:DNA complex. […] Therefore interaction of these drugs with DNA causes only minor conformational changes in the double helix.
In general terms: Circular dichroism is widely used to follow secondary structure.

Another assay has as its system SK-MEL-28. In words: NCI cytotoxicity screen (SRB). It counts as cell-based, human. How it is done: (§1) Compounds 6, 7, 9 and 10 were tested for cytotoxic properties by the National Cancer Institute, Bethesda, Md. The anticancer drug screen utilized a panel of 60 human tumor cell lines organized into subpanels representing leukemia, melanoma, and cancers of the lung, colon, kidney, ovary and central nervous system and is described by Monks et al. (1991) Journal of the National Cancer Institute 83, 757, which is incorporated herein by reference.
(§2) Cell lines were inoculated onto microtiter plates and preincubated for 24-28 hours. 100 μL aliquots of each compound were added to the appropriate microtiter plate wells in each of five 10-fold dilutions starting from a maximum concentration of 10^-4 M in water or DMSO. Cultures were then incubated for an additional 48 hours. Cells were then fixed in situ, followed by staining with sulforhodamine B (SRB), which binds to basic amino acids of cellular macromolecules. The solubilized stain was measured spectrophotometrically to determine relative cell growth or viability in treated and untreated cells. The monoimidazole analogs of Compounds 6, 7, 9 and 10 and the formamido analog corresponding to Compounds 7 and 10 are devoid of activity against the panel of cancer cell lines in Table III.

The test system of another assay is HOP-92. In words: NCI cytotoxicity screen (SRB). The following applies: subsequent test date. It counts as cell-based, human. How it is done: as §1, §2
The subject of the next assay is RXR-631. In words: NCI cytotoxicity screen (SRB). It counts as cell-based, human. How it is done: as §1, §2
In another assay the test system is SNB-19. The assay is described as follows: NCI cytotoxicity screen (SRB). It counts as cell-based, human. The method, then:
as §1, §2

In a further assay the test system is SK-MEL-2. The assay is described as follows: NCI cytotoxicity screen (SRB). It counts as cell-based, human. The method, then:
as §1, §2

The next assay relates to LOX 1MV1. In words: NCI cytotoxicity screen (SRB). The format is cell-based, human. How it is done: as §1, §2
Another assay has as its system ACHN. In words: NCI cytotoxicity screen (SRB). The format is cell-based, human. The method, then: as §1, §2
The subject of another assay is VO-31. The assay is described as follows: NCI cytotoxicity screen (SRB). The format is cell-based, human. How it is done: as §1, §2
The next assay deals with M14. The assay is described as follows: NCI cytotoxicity screen (SRB). It counts as cell-based, human. The method, then: as §1, §2
The test system of another assay is CAKI-1. In words: NCI cytotoxicity screen (SRB). It counts as cell-based, human. How it is done: as §1, §2
A further assay concerns M19-MEL. In words: NCI cytotoxicity screen (SRB). It counts as cell-based, human. How it is done:
as §1, §2

The test system of a further assay is OVCAR-3. In words: NCI cytotoxicity screen (SRB). The format is cell-based, human. How it is done:
as §1, §2

For another assay, the system named is OVCAR-5. In words: NCI cytotoxicity screen (SRB). The format is cell-based, human. The method, then: as §1, §2
In a further assay the test system is RXF-393. The assay is described as follows: NCI cytotoxicity screen (SRB). It counts as cell-based, human. How it is done: as §1, §2
The test system of another assay is LXFL529. The assay is described as follows: NCI cytotoxicity screen (SRB). The format is cell-based, human. The method, then:
as §1, §2

The next assay relates to OVCAR-4. The assay is described as follows: NCI cytotoxicity screen (SRB). It counts as cell-based, human. The method, then: as §1, §2
The subject of another assay is SN12C. The assay is described as follows: NCI cytotoxicity screen (SRB). The format is cell-based, human. The method, then:
as §1, §2

The next assay concerns SK-OV-3. The assay is described as follows: NCI cytotoxicity screen (SRB). The format is cell-based, human. The method, then: as §1, §2
A further assay deals with CCRF-CEM. The assay is described as follows: NCI cytotoxicity screen (SRB). The format is cell-based, human. How it is done: as §1, §2
For another assay, the system named is SR. The assay is described as follows: NCI cytotoxicity screen (SRB). The format is cell-based, human. The method, then:
as §1, §2

A further assay concerns SK-MEL-5. In words: NCI cytotoxicity screen (SRB). The format is cell-based, human. The method, then: as §1, §2
Where [1] appears, read: SK-MEL-28, subsequent test date.

Take `CN(C)CCNC(=O)c1nc(NC(=O)c2nc(NC(=O)c3nc(NC(=O)CCCc4ccc(N(CCCl)CCCl)cc4)cn3C)cn2C)cn1C` [Compound 10, N-(N',N'-dimethylaminoethyl)-1-methyl-4-{1-methyl-4-[4-(4,4-bis(2-chloroethyl)aminophenyl-1-butanamido)-1-methylimidazole-2-carboxamido]imidazole-2-carboxamido}imidazole-2-carboxamide]: the “negative Cotton effect band, ellipticity” value in the assay with poly(dG.dC) (315 nm, equimolar titration) is -1.0 mdeg.

In the case of `CN(C)CCNC(=O)c1nc(NC(=O)c2nc(NC(=O)c3ccc(N(CCCl)CCCl)cc3)cn2C)cn1C` [Compound 6, N-(N',N'-dimethylaminoethyl)-1-methyl-4-{4-[4,4-bis(2-chloroethyl)aminobenzamido]-1-methylimidazole-2-carboxamido}imidazole-2-carboxamide], the IC50 is 5.69 µM in the assay on SK-MEL-28 (48 h, Melanoma SK-MEL-28); 5.78 µM with SK-MEL-28 (setting [1]); 42.7 µM with HOP-92; 6.61 µM with RXR-631 (48 h, Renal Cancer RXR-631); 9.95 µM with RXR-631 (RXR-631, subsequent test date); 43.7 µM with SNB-19 (48 h, CNS Cancer SNB-19). Besides, the IC50 was found to be 32.4 µM in the assay on SNB-19 (SNB-19, subsequent test date); 7.17 µM in the assay on SK-MEL-2 (48 h, Melanoma SK-MEL-2); 5.85 µM in the assay with SK-MEL-2 (SK-MEL-2, subsequent test date); 7.47 µM in the assay with LOX 1MV1 (LOX 1MV1, subsequent test date); 54.2 µM in the assay with ACHN (48 h, Renal Cancer ACHN); 46.9 µM with ACHN (ACHN, subsequent test date). In addition, the IC50 in the assay with VO-31 (48 h, Renal Cancer VO-31) was 59.2 µM; in the assay on VO-31 (VO-31, subsequent test date) it was 57.9 µM; in the assay on M14 (48 h, Melanoma M14), 5.92 µM; in the assay with M14 (M14, subsequent test date), 5.81 µM; in the assay on CAKI-1 (48 h, Renal Cancer CAKI-1), 51.9 µM; in the assay with CAKI-1 (CAKI-1, subsequent test date), 59.7 µM. Also, the IC50 is 5.64 µM in the assay on M19-MEL (48 h, Melanoma M19-MEL); 5.65 µM in the assay with M19-MEL (M19-MEL, subsequent test date); 56 µM in the assay on OVCAR-3 (48 h, Ovarian Cancer OVCAR-3); 56.7 µM in the assay on OVCAR-3 (OVCAR-3, subsequent test date); 45.7 µM with OVCAR-5 (48 h, Ovarian Cancer OVCAR-5); 51.3 µM with OVCAR-5 (OVCAR-5, subsequent test date). Moreover, the IC50 is 50.3 µM in the assay on RXF-393 (48 h, Renal Cancer RXF-393); 44.3 µM in the assay with RXF-393 (RXF-393, subsequent test date); 13.2 µM in the assay with LXFL529 (48 h, Non-Small Cell Lung Cancer LXFL529); 34.8 µM in the assay with LXFL529 (LXFL529, subsequent test date); 34.2 µM in the assay on OVCAR-4 (48 h, Ovarian Cancer OVCAR-4); 14.3 µM in the assay with OVCAR-4 (OVCAR-4, subsequent test date). Besides, the IC50 in the assay on SN12C (48 h, Renal Cancer SN12C) was found to be 15.6 µM; with SN12C (SN12C, subsequent test date) it was 39.9 µM; in the assay on SK-OV-3 (48 h, Ovarian Cancer SK-OV-3), 52.9 µM; in the assay with SK-OV-3 (SK-OV-3, subsequent test date) it was 6.18 µM; in the assay on CCRF-CEM (48 h, Leukemia CCRF-CEM), 10.9 µM; with CCRF-CEM (CCRF-CEM, subsequent test date), 40.3 µM. Further, the 50% inhibitory concentration (IC50) with SR (48 h, Leukemia SR) is 10.4 µM; in the assay on SR (SR, subsequent test date) it was over 100 µM; in the assay on SK-MEL-5 (SK-MEL-5, subsequent test date), 52 µM. Besides, the “induced negative CD band, ellipticity” value in the assay with poly(dG.dC) (330 nm, r'=0.2) amounted to 0.7 mdeg. The compound further displayed an isobestic point in the assay with poly(dG.dC) (poly(dG.dC)) of 297 nm.

As to `CN(C)CCNC(=O)c1nc(NC(=O)c2nc(NC(=O)c3nc(NC(=O)c4ccc(N(CCCl)CCCl)cc4)cn3C)cn2C)cn1C` [Compound 7, N-(N',N'-dimethylaminoethyl)-1-methyl-4-{1-methyl-4-[4-(4,4-bis-(2-chloroethyl)aminobenzamido)-1-methylimidazole-2-carboxamido]imidazole-2-carboxamido}imidazole-2-carboxamide], the IC50 in the assay with SK-MEL-28 (48 h, Melanoma SK-MEL-28) is 0.91 µM; with SK-MEL-28 (setting [1]), 0.64 µM; in the assay on HOP-92, 3.33 µM; in the assay on RXR-631 (48 h, Renal Cancer RXR-631), 5.97 µM; in the assay with SNB-19 (48 h, CNS Cancer SNB-19) it was over 100 µM; with SK-MEL-2 (48 h, Melanoma SK-MEL-2) it was 0.65 µM. For the same compound, the IC50 is 0.89 µM in the assay on LOX 1MV1 (48 h, Melanoma LOX 1MV1); 4.51 µM in the assay on LOX 1MV1 (LOX 1MV1, subsequent test date); 7.05 µM with ACHN (48 h, Renal Cancer ACHN); 4.92 µM in the assay on ACHN (ACHN, subsequent test date); over 100 µM in the assay on VO-31 (48 h, Renal Cancer VO-31); 96.6 µM in the assay with VO-31 (VO-31, subsequent test date). Also, the IC50 with M14 (M14, subsequent test date) was 0.59 µM; in the assay with CAKI-1 (48 h, Renal Cancer CAKI-1), over 100 µM; in the assay on M19-MEL (M19-MEL, subsequent test date), 0.78 µM; in the assay on OVCAR-3 (48 h, Ovarian Cancer OVCAR-3), 0.72 µM; with OVCAR-3 (OVCAR-3, subsequent test date), 0.62 µM; with OVCAR-5 (48 h, Ovarian Cancer OVCAR-5), 6.13 µM. Besides, the IC50 in the assay with OVCAR-5 (OVCAR-5, subsequent test date) was 5.24 µM; in the assay on RXF-393 (48 h, Renal Cancer RXF-393), 0.66 µM; in the assay with LXFL529 (LXFL529, subsequent test date), 0.54 µM; in the assay with OVCAR-4 (48 h, Ovarian Cancer OVCAR-4), 0.61 µM; in the assay on OVCAR-4 (OVCAR-4, subsequent test date), 0.5 µM; in the assay on SN12C (SN12C, subsequent test date), 0.61 µM. Further, the IC50 in the assay on SK-OV-3 (48 h, Ovarian Cancer SK-OV-3) was 0.83 µM; in the assay on SK-OV-3 (SK-OV-3, subsequent test date), 0.48 µM; in the assay with CCRF-CEM (48 h, Leukemia CCRF-CEM) it was 1.52 µM; in the assay with SR (48 h, Leukemia SR), 0.91 µM; in the assay on SK-MEL-5 (48 h, Melanoma SK-MEL-5), 0.63 µM. In the assay with poly(dG.dC) (333 nm, r'=0.2), the “negative Cotton effect, ellipticity” value was 1 mdeg. In the assay with poly(dG.dC) (poly(dG.dC)), this compound gave an isobestic point of 283 nm.

For the compound `CN(C)CCNC(=O)c1nc(NC(=O)c2nc(NC(=O)c3nc(NCc4ccc(N(CCCl)CCCl)cc4)cn3C)cn2C)cn1C` [Compound 8, N-(N',N'-dimethylaminoethyl)-1-methyl-4-{1-methyl-4-[4-(4,4-bis-(2-chloroethyl)aminobenzylamino)-1-methylimidazole-2-carboxamido]imidazole-2-carboxamido}imidazole-2-carboxamide], the “new positive Cotton effect shoulder, wavelength” value with poly(dG.dC) (poly(dG.dC)) is listed as 288 nm.
